The target in data set [1] is T1, ASIC1a channel (Mus musculus, UniProt Q6NXK8).
T1 construct: endogenous in cells
T1 sequence (Q6NXK8 1-526): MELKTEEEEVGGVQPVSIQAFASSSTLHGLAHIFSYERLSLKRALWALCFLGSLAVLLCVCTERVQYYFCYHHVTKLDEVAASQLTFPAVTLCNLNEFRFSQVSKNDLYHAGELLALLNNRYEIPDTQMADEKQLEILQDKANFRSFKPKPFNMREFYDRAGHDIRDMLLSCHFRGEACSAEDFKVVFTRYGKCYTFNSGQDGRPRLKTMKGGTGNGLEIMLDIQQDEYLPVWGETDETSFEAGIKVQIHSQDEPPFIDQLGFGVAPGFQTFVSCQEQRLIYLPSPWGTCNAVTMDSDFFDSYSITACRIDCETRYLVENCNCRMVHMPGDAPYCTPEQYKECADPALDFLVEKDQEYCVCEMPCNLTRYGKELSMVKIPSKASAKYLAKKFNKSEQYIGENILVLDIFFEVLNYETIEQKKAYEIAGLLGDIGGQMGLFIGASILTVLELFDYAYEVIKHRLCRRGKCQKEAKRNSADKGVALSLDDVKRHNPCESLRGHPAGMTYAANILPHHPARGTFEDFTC
In words: Table 1, inhibition in neurons. In kind it is cell-based. How it is done: ASIC currents were recorded with whole-cell patch-clamp and fast-perfusion techniques. […] For low pH solutions, various amounts of HCl were added. For solutions with pH<6.0, MES instead of HEPES was used for more reliable pH buffering. Patch electrodes contained (in mM) 140 CsF, 2.0 MgCl2, 1.0 CaC2, 10 HEPES, 11 EGTA, 4 MgATP (pH 7.3), 300 mOsm. […] A multibarrel perfusion system (SF-77B, Warner Instrument Co.) was employed for rapid exchange of solutions.

The nature of data set [2]: Mouse 60 min MCAO, intracerebroventricular injection one hour after MCAO, infarct volume. The conditions noted are these: mice, evaluated one day after ischemia induction, FIG. 18.
For data set [3], the system named is cultured cortical neurons. Put plainly: LDH release after combined 1 hr OGD/acidosis in cortical neurons. In kind it is cell-based, mouse. Particulars: trolox 500 µM, L-NAME 300 µM; n=8-11. How it is done:
(§1) Background absorbance at 620 was subtracted.
Neurons were washed three times and incubated with glucose-free ECF at pH 7.4 or 6.0 in an anaerobic chamber (Model 1025, Forma Scientific) with an atmosphere of 85% N2, 10% H2, and 5% CO2 at 35° C. Oxygen-glucose deprivation (OGD) was terminated after 1 hr by replacing the glucose-free ECF with Neurobasal medium and incubating the cultures in a normal cell culture incubator.
As the magnitude of ASIC currents may be potentiated by cellular and neurochemical components of brain ischemia-cell swelling, arachidonic acid, and lactate and, more importantly, the desensitization of ASIC currents may be reduced dramatically by modeled ischemia (see FIGS. 5A and 5C), activation of ASICs in ischemic conditions is expected to produce greater neuronal injury. To test this hypothesis, neurons were subjected to 1 hr acid treatment under oxygen and glucose deprivation (OGD). MK801, CNQX, and nimodipine were added to all solutions to inhibit voltage-gated Ca^2+ channels and glutamate receptor-mediated cell injury associated with OGD. One hour incubation with pH 7.4 ECF under OGD conditions induced only 27.1% ± 3.5% of maximal LDH release at 24 hr (n=5, FIG. 9D).
In general terms: LDH in the medium is a marker of cell lysis.

For data set [4], the target named is T2, ASIC1a (Homo sapiens, UniProt P78348).
T2 sequence (P78348 1-528): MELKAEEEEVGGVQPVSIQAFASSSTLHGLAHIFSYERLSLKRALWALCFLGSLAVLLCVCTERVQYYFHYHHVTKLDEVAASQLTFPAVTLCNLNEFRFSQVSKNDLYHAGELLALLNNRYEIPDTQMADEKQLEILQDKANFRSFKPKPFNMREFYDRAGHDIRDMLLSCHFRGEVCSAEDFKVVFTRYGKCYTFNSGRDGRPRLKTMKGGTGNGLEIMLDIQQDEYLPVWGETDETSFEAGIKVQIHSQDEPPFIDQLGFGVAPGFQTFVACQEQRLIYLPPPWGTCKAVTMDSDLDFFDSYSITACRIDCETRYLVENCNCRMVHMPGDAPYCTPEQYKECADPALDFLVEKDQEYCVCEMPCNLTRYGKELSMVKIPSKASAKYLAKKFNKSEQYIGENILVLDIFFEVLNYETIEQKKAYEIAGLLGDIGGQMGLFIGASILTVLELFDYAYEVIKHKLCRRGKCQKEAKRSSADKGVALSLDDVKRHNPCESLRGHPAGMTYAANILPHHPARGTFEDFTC
In words: Blockade of ASIC 1a current expressed in CHO cells. More on the design: expressed in transfected cells; host or cells: CHO. It counts as cell-based. The conditions noted are these: for block of ASIC1a current: CHO cells, FIG. 16.

Data set [5] has as its system Knockout 1a. Put plainly: Table 1, inhibition in Knockout 1a. It counts as cell-based.
Data set [6] has as its target T3, ASIC2a (Homo sapiens, UniProt Q16515).
T3 construct: expressed in transfected cells; host or cells: CHO
T3 sequence (Q16515 1-512): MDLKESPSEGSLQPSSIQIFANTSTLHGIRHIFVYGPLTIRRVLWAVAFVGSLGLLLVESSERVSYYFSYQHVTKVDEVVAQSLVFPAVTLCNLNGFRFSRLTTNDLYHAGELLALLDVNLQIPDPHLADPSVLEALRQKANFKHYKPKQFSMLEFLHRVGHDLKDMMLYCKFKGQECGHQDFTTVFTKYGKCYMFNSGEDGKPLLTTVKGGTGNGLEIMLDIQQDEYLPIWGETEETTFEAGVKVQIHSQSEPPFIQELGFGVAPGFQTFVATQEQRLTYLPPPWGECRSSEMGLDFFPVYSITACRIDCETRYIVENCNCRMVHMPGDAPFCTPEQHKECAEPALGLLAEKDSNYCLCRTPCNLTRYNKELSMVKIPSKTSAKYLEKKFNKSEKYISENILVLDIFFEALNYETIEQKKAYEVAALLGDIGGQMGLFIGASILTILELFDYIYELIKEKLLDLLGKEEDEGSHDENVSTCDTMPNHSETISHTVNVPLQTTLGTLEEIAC
Put plainly: Blockade of ASIC 2a current expressed in CHO cells. It counts as cell-based.

For data set [7], the system named is Knockout 2a. In words: Table 1, inhibition in Knockout 2a. In kind it is cell-based.
Data set [8] in a line: Mouse 60 min MCAO, memantine i.p. with or without PcTX venom i.c.v., infarct volume. It counts as in vivo, mice.
The test system of data set [9] is cortical neurons. In words: Fura-2 Ca^2+ imaging of acid-induced increase of [Ca^2+]i in cortical neurons. In kind it is cell-based, mouse. Particulars: preincubation with 1 µM; n=6.
In data set [10] the target is T2, ASIC1a. Put plainly: Inhibition of the ASIC1a channel (IC50 from Table 1, cell system not given). In kind it is cell-based. Particulars: quoted in the text from Table 1.
For data set [11] the following is noted: 0.9% saline; cited from earlier work.
Data set [12] concerns ASIC1^-/- neurons. In kind it is cell-based, mouse. Particulars: 1 hr treatment with 1 mM NMDA+10 µM glycine in Mg^2+-free pH 7.4 ECF; n=4. How it is done:
Following anesthesia with halothane, cerebral cortices were dissected from E16 Swiss mice or P1 ASIC1+/+ and ASIC1-/- mice and incubated with 0.05% trypsin-EDTA for 10 min at 37° C. Tissues were then triturated with fire-polished glass pipettes and plated on poly-L-ornithine-coated 24-well plates or 25x25 mm glass coverslips at a density of 2.5x10^5 cells per well or 10^6 cells per coverslip. Neurons were cultured with MEM supplemented with 10% horse serum (for E16 cultures) or Neurobasal medium supplemented with B27 (for PI cultures) and used for electrophysiology and toxicity studies after 12 days. Glial growth was suppressed by addition of 5-fluoro-2-deoxyuridine and uridine, yielding cultured cells with 90% neurons as determined by NeuN and GFAP staining (data not shown).
as §1
. […] . In contrast to acid incubation, 1 hr treatment of ASIC1^-/- neurons with 1 mM NMDA+10 µM glycine (in Mg^2+-free [pH 7.4] ECF) induced 84.8% ± 1.4% of maximal LDH release at 24 hr (n=4, FIG. 9C), indicating normal response to other cell injury processes.

[13] abbreviates: Neuron (-60 mV), read-out: Inhibition of the ASIC1a channel, Neuron (-60 mV).
Where [14] appears, read: read-out: Inhibition of the ASIC1a channel, Neuron (-60 mV).

Several values for one entry are separate records, joined by “and”; a condition that tells them apart may be missing. Equal entries are not always repeated. Structures can show the parent of a compound that is named as a salt. Where two headings read alike, the source gives them in different places.

Take `CC(C)COCC(CN(Cc1ccccc1)c1ccccc1)N1CCCC1` (stereo not drawn) [Bepridil, bepridil]: in data set [1] (setting [13]), the IC50 came to 82.9 ± 5.2 µM. Also, in data set [2], the infarct volume result was “effectively reduce infarct volume”.
For the compound `Cc1c(C)c2c(c(C)c1O)CCC(C)(C(=O)O)O2` (stereo not drawn) [trolox], in data set [3], the “LDH release induced by combined 1 hr OGD/acidosis” value is “not inhibited”.
For `CCN(c1nc(N)c(C(=O)NC(=N)N)nc1Cl)C(C)C` [EIPA, 5-(N-ethyl-N-isopropyl) amiloride], the IC50 turned out to be 32.2 ± 6.3 µM in [1] (Neuron (-20 mV), read-out: Inhibition of the ASIC1a channel, Neuron (-20 mV)); 43.3 ± 1.43 µM in data set [1] (setting [13]); 111 ± 30 µM in data set [4] (CHO 1a, read-out: Inhibition of the ASIC1a channel, CHO 1a); 35.9 ± 2.1 µM in [5]; 31 µM in data set [6] (CHO 2a, read-out: Inhibition, CHO 2a); 20.1 ± 2.2 µM in [7]. Further, in data set [4], the “block of ASIC1a current” value is reported as “dose-dependent”. For the same compound, the “block of ASIC2a current” value in [6] (CHO cells, FIG. 17) is “dose-dependent”.
As for `CC12CC3CC(C)(C1)CC(N)(C3)C2` [memantine], the infarct volume in data set [8] (ASIC1^-/- mice, memantine i.p., n=5) worked out at 27.7 ± 1.6 mm^3; in data set [8] (ASIC^+/+ mice, 10 mg/kg memantine i.p., saline 101.4 ± 9.4, n=5) it was 61.6 ± 12.7 mm^3.
Turning to `COC(=O)[C@@H](N)CCCNC(=N)N[N+](=O)[O-]` [L-NAME], in [3], the “LDH release induced by combined 1 hr OGD/acidosis” value is reported as “not inhibited”.
As for `CC(C)CN(C)c1nc(N)c(C(=O)N=C(N)N)nc1Cl` [5-(N-Methyl-N-isobutyl)-amiloride], in data set [1] (setting [14]), the IC50 worked out at 24.3 µM.
`C/C=C(/C)C(=O)O[C@H]1C(C)=C2[C@H]([C@@H]1OC(=O)CCCCCCC)[C@@](C)(OC(C)=O)C[C@H](OC(=O)CCC)[C@@]1(O)[C@H]2OC(=O)[C@@]1(C)O` [thapsigargin]: the “sustained component of Ca^2+ increase” value in data set [9] is “partially inhibited”.
For `NC(=NCc1ccccc1)NC(=O)c1nc(Cl)c(N)nc1N` [benzamil], the IC50 in data set [10] is 4.9 µM and 4 to 8 µM. The reported solubility in data set [11] is 0.4 mg/ml and 1.7 mM.
For `NC(=Nc1ccccc1)NC(=O)c1nc(Cl)c(N)nc1N` [phenamil], in data set [4], the “block of ASIC1a current” value is reported as “dose-dependent”.
Regarding `CN[C@H](CC(=O)O)C(=O)O` [NMDA], the “maximal LDH release at 24 hr” value in data set [12] is 84.8% ± 1.4%.
In the case of `CN(C)c1nc(N)c(C(=O)NC(=N)N)nc1Cl` [5-(N, N-Dimenthyl)amiloride hydrochloride], the IC50 in [1] (setting [14]) was 14.8 ± 7.1 µM.

The values above are taken from patent EP3035931B1, “COMPOSITION FOR REDUCING NERVOUS SYSTEM INJURY AND METHOD OF MAKING AND USE THEREOF” (Morehouse School of Medicine, priority 2013, dated 2015).
